Structures are written as SMILES.

The experiment has as its target T1, P2X7 (UniProt Q99572).
T1 sequence (Q99572 1-595): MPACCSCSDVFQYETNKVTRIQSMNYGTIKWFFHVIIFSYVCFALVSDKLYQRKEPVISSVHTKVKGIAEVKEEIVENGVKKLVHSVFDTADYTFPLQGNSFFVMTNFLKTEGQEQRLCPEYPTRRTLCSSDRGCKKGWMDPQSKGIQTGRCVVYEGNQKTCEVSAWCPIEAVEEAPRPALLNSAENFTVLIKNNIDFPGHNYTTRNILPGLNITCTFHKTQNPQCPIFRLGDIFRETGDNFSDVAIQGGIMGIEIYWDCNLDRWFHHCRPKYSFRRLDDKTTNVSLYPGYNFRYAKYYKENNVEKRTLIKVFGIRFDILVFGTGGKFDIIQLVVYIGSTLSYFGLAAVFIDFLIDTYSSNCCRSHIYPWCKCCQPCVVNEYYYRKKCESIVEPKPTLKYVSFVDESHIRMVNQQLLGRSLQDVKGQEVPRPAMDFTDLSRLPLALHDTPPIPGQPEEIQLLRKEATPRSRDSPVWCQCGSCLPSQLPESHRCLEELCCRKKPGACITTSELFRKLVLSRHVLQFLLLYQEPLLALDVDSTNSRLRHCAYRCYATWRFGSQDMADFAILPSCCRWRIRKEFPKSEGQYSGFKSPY
As to the kind of experiment: P2X7 activity of Table 1. It is filed as cell-based. Conditions: pIC50 values for P2X7. The protocol:
Stock solutions of compounds were prepared from powders as a 10 mM DMSO stock solution. These solutions were stored at RT during the two week period of these experiments to prevent freeze-thaw of the DMSO stocks. The DMSO stocks were added to the appropriate assay buffer at a concentration of 10 μM, and then diluted serially to the final concentrations that were tested. […] The aqueous solutions of compounds as well as ATP (Sigma A7699) and BzATP (Sigma B6396) were prepared fresh for each day of experiment.
1321N1 cells stably expressing the full length human P2X7 gene (1321N1-hP2X7) and HEK293 cells stably expressing the full length rat P2X7 gene (HEK293-rP2X7) were obtained from the Roche Cell Culture Facility. 1321N1-hP2X7 cells were grown in Dulbecco's Modified Eagle's Medium (DMEM) high glucose supplemented with 10% FBS and 250 μg/mL G418. HEK293-rP2X7 cells were grown in DMEM/F-12 supplemented with 10% FBS, 1 mM CaCl2, 2 mM MgCl2, 2 mM L-Glutamine and 500 μg/ml G418. Cells were split such that they never became >70% confluent.
On the day prior to the experiment, 1321N1-hP2X7 or HEK293-rP2X7 cells were released into suspension with calcium-free PBS+Versene and washed by centrifugation with calcium-free PBS to remove the Versene. Cells were resuspended in growth medium at a density of 2.5×10^5 cells/mL and seeded into black walled, clear bottom 96 well plates (50,000 cells/well) approximately 18 hr prior to intracellular calcium flux experiments.
On the day of the experiment, plates were washed with FLIPR buffer (calcium- and magnesium-free Hank's Balanced Salt Solution (HBSS) supplemented with 10 mM Hepes, 2.5 mM probenecid and 2 mM calcium chloride) using a BIO-TEK 96 channel plate washer and incubated with […] fluo-3 dye at 37° C. for one hr. The dye was then removed by plate washing and the cells were allowed to equilibrate for 20 min at room temperature with antagonist or vehicle (FLIPR buffer). Agonist (100 μM BzATP final concentration for hP2X7; 5 μM BzATP final concentration or rP2X7) was added online with the FLIPR and fluorescence measurements made at 1 sec intervals for 60 sec followed by 3 sec intervals for a further 4 min (5 min total). A final addition of 5 μM ionomycin was made and the maximal BzATP-evoked fluorescence normalized to the maximal ionomycin-evoked fluorescence.

The molecule `Cc1cc(-c2cccc(NC(=O)C3=CNC(=O)C[C@H]3c3ccc(F)cc3)c2)nn1C` [Compound 18, (S)-4-(4-Fluoro-phenyl)-6-oxo-1,4,5,6-tetrahydro-pyridine-3-carboxylic acid [3-(1,5-dimethyl-1H-pyrazol-3-yl)-phenyl]-amide] showed a pIC50 of 5.72.
Turning to `Cc1ccc(-c2ccnn(C)c2=O)cc1NC(=O)C1=CNC(=O)C[C@H]1c1cccc(F)c1` [Compound 109, (S)-4-(3-Fluoro-phenyl)-6-oxo-1,4,5,6-tetrahydro-pyridine-3-carboxylic acid [2-methyl-5-(2-methyl-3-oxo-2,3-dihydro-pyridazin-4-yl)-phenyl]-amide], the pIC50 amounted to 8.045.
Turning to `COCCn1nc(-c2ccc(C)c(NC(=O)C3=CNC(=O)C[C@H]3c3ccc(F)cc3)c2)cc1C` [Compound 42, (S)-4-(4-Fluoro-phenyl)-6-oxo-1,4,5,6-tetrahydro-pyridine-3-carboxylic acid {5-[1-(2-methoxy-ethyl)-5-methyl-1H-pyrazol-3-yl]-2-methyl-phenyl}-amide], the negative-log IC50 (pIC50) is 7.3.
For the molecule `Cc1ccc(-c2cncc(=O)[nH]2)cc1NC(=O)C1=CNC(=O)C[C@H]1c1ccc(F)cc1` [Compound 82, (S)-4-(4-Fluoro-phenyl)-6-oxo-1,4,5,6-tetrahydro-pyridine-3-carboxylic acid [2-methyl-5-(6-oxo-1,6-dihydro-pyrazin-2-yl)-phenyl]-amide], the pIC50 is reported as 5.395.
Then `COC[C@H](O)Cn1nccc(-c2ccc(C)c(NC(=O)C3=CN(C)C(=O)C[C@H]3c3ccc(F)cc3)c2)c1=O` [Compound 105, (S)-4-(4-Fluoro-phenyl)-1-methyl-6-oxo-1,4,5,6-tetrahydro-pyridine-3-carboxylic acid {5-[2-((R)-2-hydroxy-3-methoxy-propyl)-3-oxo-2,3-dihydro-pyridazin-4-yl]-2-methyl-phenyl}-amide], with 7.57.
In turn, `Cc1ccc(-c2ccc(=O)n(C)n2)cc1NC(=O)C1=CNC(=O)C[C@H]1c1ccc(F)cc1` [Compound 98, (S)-4-(4-Fluoro-phenyl)-6-oxo-1,4,5,6-tetrahydro-pyridine-3-carboxylic acid [2-methyl-5-(1-methyl-6-oxo-1,6-dihydro-pyridazin-3-yl)-phenyl]-amide] gave a pIC50 of 6.52.
Take `Cc1ccc(-n2cccn2)cc1NC(=O)C1=CNC(=O)C[C@H]1c1ccc(F)cc1` [Compound 11, (S)-4-(4-Fluoro-phenyl)-6-oxo-1,4,5,6-tetrahydro-pyridine-3-carboxylic acid (2-methyl-5-pyrazol-1-yl-phenyl)-amide]: the pIC50 is given as 7.763.
In the case of `Cc1ccc(-c2ccc(=O)[nH]n2)cc1NC(=O)C1=CN(C)C(=O)C[C@H]1c1ccc(F)cc1` [Compound 118, (S)-4-(4-Fluoro-phenyl)-1-methyl-6-oxo-1,4,5,6-tetrahydro-pyridine-3-carboxylic acid [2-methyl-5-(6-oxo-1,6-dihydro-pyridazin-3-yl)-phenyl]-amide], the pIC50 is 6.585.
Molecule `Cc1ccc(-c2ccc(=O)n(CCO)n2)cc1NC(=O)C1=CNC(=O)C[C@H]1c1ccc(F)cc1` [Compound 121, (S)-4-(4-Fluoro-phenyl)-6-oxo-1,4,5,6-tetrahydro-pyridine-3-carboxylic acid {5-[1-(2-hydroxy-ethyl)-6-oxo-1,6-dihydro-pyridazin-3-yl]-2-methyl-phenyl}-amide] gave a pIC50 of 7.385.
The molecule `Cc1ccc(-c2ccn(CCO)n2)cc1NC(=O)C1=CNC(=O)C[C@H]1c1cccc(Cl)c1` (stereo in doubt) [Compound 114, 4-(3-Chloro-phenyl)-6-oxo-1,4,5,6-tetrahydro-pyridine-3-carboxylic acid {5-[1-(2-hydroxy-ethyl)-1H-pyrazol-3-yl]-2-methyl-phenyl}-amide] gave a pIC50 of 7.56. This pIC50 and that of the molecule before are within 0.2 log units of each other.
With `CCn1c(=O)cnn(-c2ccc(C)c(NC(=O)C3=CN(C)C(=O)C[C@H]3c3ccc(F)cc3)c2)c1=O` [Compound 131, (S)-4-(4-Fluoro-phenyl)-1-methyl-6-oxo-1,4,5,6-tetrahydro-pyridine-3-carboxylic acid [5-(4-ethyl-3,5-dioxo-4,5-dihydro-3H-[1,2,4]triazin-2-yl)-2-methyl-phenyl]-amide] the figure was 7.42; with `Cc1ccc(-c2ccnn(C)c2=O)cc1NC(=O)C1=CN(C)C(=O)C[C@H]1c1ccc(F)cc1` [Compound 81, (S)-4-(4-Fluoro-phenyl)-1-methyl-6-oxo-1,4,5,6-tetrahydro-pyridine-3-carboxylic acid [2-methyl-5-(2-methyl-3-oxo-2,3-dihydro-pyridazin-4-yl)-phenyl]-amide], 7.94.
For the molecule `COC[C@H](O)Cn1nccc(-c2ccc(C)c(NC(=O)C3=CN(C)C(=O)C[C@H]3c3cccc(F)c3)c2)c1=O` [Compound 104, (S)-4-(3-Fluoro-phenyl)-1-methyl-6-oxo-1,4,5,6-tetrahydro-pyridine-3-carboxylic acid {5-[2-((R)-2-hydroxy-3-methoxy-propyl)-3-oxo-2,3-dihydro-pyridazin-4-yl]-2-methyl-phenyl}-amide], the pIC50 is reported as 7.8.
As for `Cc1ccc(-n2cc(C)c(=O)[nH]c2=O)cc1NC(=O)C1=CN(C)C(=O)C[C@H]1c1ccc(F)cc1` [Compound 129, (S)-4-(4-Fluoro-phenyl)-1-methyl-6-oxo-1,4,5,6-tetrahydro-pyridine-3-carboxylic acid [2-methyl-5-(5-methyl-2,4-dioxo-3,4-dihydro-2H-pyrimidin-1-yl)-phenyl]-amide], the pIC50 was 7.945.
`Cc1cncc(-c2ccc(C)c(NC(=O)C3=CNC(=O)C[C@H]3c3ccc(F)cc3)c2)n1` [Compound 79, (S)-4-(4-Fluoro-phenyl)-6-oxo-1,4,5,6-tetrahydro-pyridine-3-carboxylic acid [2-methyl-5-(6-methyl-pyrazin-2-yl)-phenyl]-amide] displayed a pIC50 of 6.58.
On to `Cc1ccc(-c2nnn(C)n2)cc1NC(=O)C1=CNC(=O)C[C@H]1c1ccc(F)cc1` [Compound 3, (S)-4-(4-Fluoro-phenyl)-6-oxo-1,4,5,6-tetrahydro-pyridine-3-carboxylic acid [2-methyl-5-(2-methyl-2H-tetrazol-5-yl)-phenyl]-amide], for which the pIC50 is given as 6.21.
Turning to `Cc1ncn(-c2ccc(C)c(NC(=O)C3=CNC(=O)C[C@H]3c3ccc(F)cc3)c2)n1` [Compound 27, (S)-4-(4-Fluoro-phenyl)-6-oxo-1,4,5,6-tetrahydro-pyridine-3-carboxylic acid [2-methyl-5-(3-methyl-[1,2,4]triazol-1-yl)-phenyl]-amide], the pIC50 is recorded as 6.28.
In the case of `Cc1ccc(-c2cc(C)n(C[C@@H](O)CO)n2)cc1NC(=O)C1=CNC(=O)C[C@H]1c1ccc(F)cc1` [Compound 19, (S)-4-(4-Fluoro-phenyl)-6-oxo-1,4,5,6-tetrahydro-pyridine-3-carboxylic acid {5-[1-((R)-2,3-dihydroxy-propyl)-5-methyl-1H-pyrazol-3-yl]-2-methyl-phenyl}-amide], the pIC50 worked out at 7.423.
`Cc1ccc(-c2cc(C)n(CC(=O)NCCN(C)C)n2)cc1NC(=O)C1=CNC(=O)C[C@H]1c1ccc(F)cc1` [Compound 119, (S)-4-(4-Fluoro-phenyl)-6-oxo-1,4,5,6-tetrahydro-pyridine-3-carboxylic acid (5-{1-[(2-dimethylamino-ethylcarbamoyl)-methyl]-5-methyl-1H-pyrazol-3-yl}-2-methyl-phenyl)-amide] came in with a pIC50 of 7.685.
`Cc1cnn(-c2ccc(C)c(NC(=O)C3=CN(C)C(=O)C[C@H]3c3ccc(F)cc3)c2)c(=O)c1` [Compound 136, (S)-4-(4-Fluoro-phenyl)-1-methyl-6-oxo-1,4,5,6-tetrahydro-pyridine-3-carboxylic acid [2-methyl-5-(4-methyl-6-oxo-6H-pyridazin-1-yl)-phenyl]-amide] gave a pIC50 of 7.515.

Broadly, the pIC50 is the IC50 on a negative log10 scale, so that one unit is a factor of ten.

Values taken from patent publication US8163929B2, “Dihydropyridone amides as P2X7 modulators” (Roche Palo Alto LLC, priority 2008, dated 2012).
